The results in this text go back to patent US20230398130A1, “METHODS AND COMPOSITIONS FOR DIFFERENTIATING STEM CELLS” (Massachusetts Institute of Technology, priority 2020, published 2023).

In data set [1] the test system is ISC-enriched organoids. Briefly: Secondary (validation) screen, 384-well 2.5-D, ENR+CD 6 days, n=8 wells, vs ENR+CD+DMSO control: basal lysozyme secretion (LYZ.NS). In kind it is cell-based, murine.
Data set [2] deals with ISC-enriched organoids. As to the kind of experiment: Primary screen, 384-well 2.5-D organoid differentiation (ENR+CD, 6 days, Target Selective Inhibitor Library, vs whole-plate median): ATP (CellTiter-Glo 3D, CTG). The note with it: for Z.CTG / SSMD.CTG: primary screen; for Z.CTG: standard z score; for SSMD.CTG: strictly standardized mean difference. (In general: In ATP-based viability assays light output follows the ATP content of the culture.)

Data set [3] has as its system ISC-enriched organoids. As to the kind of experiment: Lysozyme secretion assay, 3-D organoids in ENR, normalized to ATP. In kind it is cell-based, murine. The settings on record: 6 hit compounds, 6 days ENR, 10 μM Cch 3 h. The method, then: Lysozyme assay (3D culture). ISC-enriched organoids cultured in 3D Matrigel with ENRCV media were passaged to 48-well plate in 3D Matrigel with ENRCV. At day zero, media were replaced to ENR or ENRCD with or without indicated compounds, and media were replaced every other day. At day six, cells were washed twice with basal media and treated with carbamylcholine chloride (Sigma, C4382) for 3 hours. Media were collected and lysozyme activity was measured by EnzChek Lysozyme Assay Kit (ThermoFisher, E22013).
Lysozyme secretion assay. ISC-enriched organoids in 3D Matrigel culture were passaged to a 48- or 96-well plate and cultured with ENR or ENR+CD media containing DMSO or each drug for 6 days. DMSO- or drug-containing media were changed every other day. […] The fluorescence was measured using excitation/emission of 485/530 nm. […] The solution was replaced to a 96-well white microplate, and luminescent signals were measured by a microplate reader (infinite M200, Tecan). […] For both assays, a polynomial cubic curve was fitted to a set of standard data, and each sample value was calculated on the Microsoft Excel.
Lysozyme secretion assay. […] The fluorescence was measured using excitation/emission of 485/530 nm. […] The solution was replaced to a 96-well white microplate, and luminescent signals were measured by a microplate reader (infinite M200, Tecan). […]

As to `O=C(/C=C\n1cnc(-c2cc(C(F)(F)F)cc(C(F)(F)F)c2)n1)NNc1cnccn1` [KPT-330], the Z.LYZ.NS in the data set on ISC-enriched organoids [1] (Dose 0.02 uM) is on record as −0.038; in the data set on ISC-enriched organoids [1] (Dose 0.04 uM) it was −0.318; in the data set with ISC-enriched organoids [1] (dose 0.08 uM), 1.132. The repSSMD.LYZ.NS in the data set on ISC-enriched organoids [1] (Dose 0.02 uM) is on record as −0.050; with ISC-enriched organoids [1] (Dose 0.04 uM) it was −0.506; in the data set on ISC-enriched organoids [1] (dose 0.08 uM), 1.621. Besides, in the data set with ISC-enriched organoids [1] (validated doses, secondary screen), the “increase in LYZ.NS (basal LYZ secretion) relative to ENR+CD control” value is recorded as 50-75%. Further, the Z.CTG in the data set with ISC-enriched organoids [2] (Dose 0.08 uM) is reported as 0.503; with ISC-enriched organoids [2] (Dose 0.40 uM) it was −1.569; in the data set on ISC-enriched organoids [2] (Dose 2.00 uM) it was −2.135; with ISC-enriched organoids [2] (Dose 10.00 uM), −4.480. Also, the “toxicity at concentrations higher than 160 nM” value with ISC-enriched organoids [2] (primary screening) is listed as “higher concentrations proved toxic”. Also, the SSMD.CTG in the data set with ISC-enriched organoids [2] (1st of the 4 dose lines of the treatment (dose not given)) is on record as 0.686; with ISC-enriched organoids [2] (2nd of the 4 dose lines of the treatment (dose not given)), −0.942; with ISC-enriched organoids [2] (3rd of the 4 dose lines of the treatment (dose not given)) it was −2.044; in the data set with ISC-enriched organoids [2] (4th of the 4 dose lines of the treatment (dose not given)), −2.988. Further, the “Paneth cell-specific activity (LYZ secretion) in conventional ENR culture” value in the data set on ISC-enriched organoids [3] is on record as “enhancing Paneth cell-specific activity”.
